Assay results taken from publication PMC11994961, “In Vivo pharmacokinetic interactions of ribociclib with rivaroxaban and apixaban in rats: implications for increased drug exposure and dose adjustments” (Frontiers in Pharmacology, 2025).
Entries after “also recorded” stand apart in the source; their conditions may differ. Where two headings read alike, the source gives them in different places.

Assays:
[1] = tested on: Cyp3a1(CYP3A4) mRNA in the liver; experiment: qRT-PCR mRNA expression in rat liver after ribociclib; assay type: in vivo; details: rats, ribociclib continuously for 8 days
Text: qRT-PCR analysis was used to determine the mRNA levels of Cyp3a1(CYP3A4) in the liver and Abcb1a (P-gp), Cyp3a1(CYP3A4), Abcg2(BCRP) in the intestines. Total RNA was extracted from frozen liver and intestine samples using the TRNzol Universal reagent, following the manufacturer’s instructions. The Bio Tek Epoch (Bio Tek Instruments, Inc., Winooski, VT, United States) was used to quantify the purity and concentration of the total RNA, based on the ratio of the absorbance at 260 and 280 nm. The RNA samples, each containing 1 µg of material, were converted to complementary DNA (cDNA) using the FastKing RT Kit. The real-time PCR assays were performed using a two-step amplification protocol on the SLAN-96S Real-Time PCR system (Shanghai Hongshi Medical Technology Co., Ltd., Shanghai, China). […] was employed as an internal control, and the PCR cycling criteria were as follows: 95°C for 15 min, followed by 40 cycles of 95°C for 10 s and 60°C for 32 s.

CYP3A4 = tested on: CYP3A4; design: method as in Sorf et al., 2018; details: in vitro; ref Sorf et al., 2018; read-out: half-maximal inhibitory concentration (IC50) against CYP3A4; cited from earlier work
[2] = Pharmacokinetic study of ribociclib in rats, alone and after rivaroxaban or apixaban (UPLC-MS/MS plasma levels); assay type: in vivo, Sprague-Dawley rats; details: for Cmax / AUC(0-inf) / AUC(0-t) / Tmax / half-life / CL/F / MRT inf / MRT last / Vd/F: Sprague-Dawley, rat, plasma, 60 mg/kg; for CL/F: read-out: CLz/F (converted); for MRT inf: read-out: MRT0- ∞; for MRT last: read-out: MRT0-t; for Vd/F: read-out: Vz/F
Description: Experimental animals were randomly divided into nine groups (n = 6, Table 1). Ribociclib was suspended in methylcellulose (MC), rivaroxaban was prepared in hydroxypropyl methylcellulose (HPMC), and apixaban was suspended in 5% DMSO in water. To achieve steady-state blood concentrations, a drug typically requires five to seven half-lives. Based on this principle, ribociclib was administered orally for eight consecutive days, while rivaroxaban and apixaban were administered orally for five consecutive days to ensure steady-state concentrations were reached before further analysis. Approximately 0.1 mL of blood was collected into heparinized tubes via the orbitalat specified time points before and after the final drug administration. […] Blood samples were centrifuged at 3,500 rpm for 10 min, and the supernatant was collected and stored at −80°C until processing for UPLC-MS/MS. Apixaban and rivaroxaban concentrations in plasma samples were determined using our previously established UPLC-MS/MS method ([Wang et al., 2023]). Ribociclib concentrations were quantified using an LC-30A UPLC system (Shimadzu, Kyoto, Japan) coupled with a Sciex Triple Quad 5500 tandem quadrupole mass spectrometer (AB Sciex, Framingham, MA, United States) equipped with an electrospray ionization interface. Chromatographic separation was performed using a Welch Boltimate column (2.1 mm × 100 mm, 2.7 μm) maintained at 40°C. The mobile phase was composed of water containing 0.1% formic acid (phase A) and acetonitrile (phase B). The flow rate was held constant at 0.3 mL/min. […] The injection volume was 1 μL. The mass spectrometer operated in positive ion mode and multiple reaction monitoring (MRM) mode for detection and quantification. The monitored transitions of precursors to product ions were as follows: 441.3→332.1 for ribociclib-d6 and 435.3.→322.1 for ribociclib (Figure 1). The mass spectrometer conditions, including delustering potential (DP) and collision energy (CE) of the compounds, are shown in Table 2. Other parameters of the mass spectrometer were as follows: ion source gas 160.0 psi; ion source gas 2,50.0 psi; curtain gas, 25.0 psi. The source temperature was 500°C and the ion spray voltage was 5,500 V. A 50 µL plasma sample was mixed with 5 µL of the IS working solution, followed by the addition of 150 µL of acetonitrile. The mixture was vortexed for 2 min and then centrifuged at 12,000 rpm for 10 min. Next, 70 µL of the supernatant was collected and mixed with 70 µL of 50% (v/v) of acetonitrile in water. The mixture was vortexed for 1 min, and then 1 µL was injected into the UPLC-MS/MS system for analysis. […] The area under the concentration–time curve (AUC), maximum plasma concentration (Cmax), time to maximum plasma concentration (Tmax), the time required to eliminate half of the plasma drug concentration (t1/2), clearance of drug plasma volume per unit time (CLz/F), apparent volume distribution (Vz/F), mean residence time (MRT) and the absorption rate constant (Ka) are all expressed as mean ± standard deviation (SD). SPSS 25.0 statistical software (SPSS Inc., Chicago, IL, United States) was applied to statistically analyze the mainpharmacokinetic parameters. Shapiro-Wilk test was used to assess whether the data were normally distributed, t test was used for parameters conforming to the normal distribution, and Mann-Whitney U test was used for parameters not conforming to the normal distribution. Statistical comparisons were conducted using a analysis of variance, t-test or nonparametric rank-sum test depending on the data type.

[3] = design: method as in Kvasnicka et al., 2017; details: ref Kvasnicka et al., 2017; cited from earlier work
CYP3A4/5 = tested on: CYP3A4/5; design: method as in Mueck et al., 2013; details: ref Mueck et al., 2013; cited from earlier work
[4] = po, rats, RIBO 60 mg/kg after API 0.5 mg/kg for 5 days
[5] = po, rats, RIBO 60 mg/kg after RIVA 2 mg/kg for 5 days
[6] = po, rats, oral RIBO 60 mg/kg alone

## CN(C)C(=O)c1cc2cnc(Nc3ccc(N4CCNCC4)cn3)nc2n1C1CCCC1 [RIBO, ribociclib]
[1]
  mRNA expression of Cyp3a1 in the liver: no significant changes
CYP3A4
  IC50: […]
[2]; oral, rats administered 60 mg/kg
  Cmax: […]
[2]; [4]
  AUC(0-inf): […]
  AUC(0-t): […]
  Cmax: […]
  Tmax: […]
  half-life: […]
  CL/F: […]
  MRT inf: […]
  MRT last: […]
  Vd/F: […]
[2]; [5]
  Vd/F: 24.7 ± 4.85 L/kg
[2]; [6]
  AUC(0-t): 20300 ng·h/mL
[2]; rats, RIBO 60 mg/kg after multiple doses of apixaban vs alone
  changes in the pharmacokinetic parameters: no significant changes; also recorded: did not alter
[2]; rats, RIBO 60 mg/kg after multiple doses of rivaroxaban vs alone
  changes in the pharmacokinetic parameters: no significant changes; also recorded: did not alter
[2]; rats, RIBO 60 mg/kg, apixaban group vs alone
  slight increase in Cmax: not statistically significant

## O=C(NC[C@H]1CN(c2ccc(N3CCOCC3=O)cc2)C(=O)O1)c1ccc(Cl)s1 [RIVA, rivaroxaban]
[3]
  time to maximum plasma concentration (Cmax) after administration: 2 to 4 h
CYP3A4/5
  share of total elimination by CYP3A4/5: approximately 18%
